Organism: Rattus norvegicus
Assay: Open TG-GATES - Regimen: Single
Assay type: toxicity, organism-based, Sprague-Dawley
Design: regimen Single, gender Male, age 6 weeks
Conditions: in vivo, po, route gavage; for KIDNEY_L / KIDNEY_R / KIDNEY_TOTAL: tissue Kidney; for ALP / ALT / BUN / CRE / DBIL / GLC / IP / K / Na / RALB / TBIL / TG / TP / gamma-GTP / PL: tissue Plasma; for LIVER: tissue Liver
[1] = 10 mg/kg, 3 h, tissue Blood, dose level Middle
[2] = 10 mg/kg, 3 h, dose level Middle
[3] = 10 mg/kg, 6 h, dose level Middle
[4] = 10 mg/kg, 6 h, tissue Blood, dose level Middle
[5] = 10 mg/kg, 9 h, dose level Middle
[6] = 10 mg/kg, 9 h, tissue Blood, dose level Middle
[7] = 10 mg/kg, 24 h, dose level Middle
[8] = 10 mg/kg, 24 h, tissue Blood, dose level Middle
[9] = 30 mg/kg, 3 h, tissue Blood, dose level High
[10] = 30 mg/kg, 6 h, tissue Blood, dose level High
[11] = 30 mg/kg, 9 h, tissue Blood, dose level High
[12] = 30 mg/kg, 24 h, dose level High
[13] = 30 mg/kg, 24 h, tissue Blood, dose level High

CNCCC(Oc1ccc(C(F)(F)F)cc1)c1ccccc1.Cl (centres undefined) [FLUOXETINE HYDROCHLORIDE]
Bas [1]: 0% | Eos [1]: 1.2% | Ht [1]: 41.6% | Lym [1]: 68.4% | MCHC [1]: 32.1% | Ret [1]: 8.7% | WBC [1]: 85.2 x10_2/uL | KIDNEY_L [2]: 1 g | KIDNEY_R [2]: 1 g | KIDNEY_TOTAL [2]: 2 g | ALP [2]: 1509 IU/L | ALT [2]: 36.6 IU/L | BUN [2]: 13.8 mg/dL | CRE [2]: 0.4 mg/dL | DBIL [2]: 0.014 mg/dL | GLC [2]: 201.4 mg/dL | IP [2]: 10.3 mg/dL | K [2]: 5.2 meq/L | Na [2]: 138.6 meq/L | RALB [2]: 4.1 g/dL | TBIL [2]: 0.042 mg/dL | TG [2]: 128.6 mg/dL | TP [2]: 5.9 g/dL | gamma-GTP [2]: 0 IU/L | TERMINAL_BW [3]: 215.2 g | Bas [4]: 0% | Eos [4]: 1% | Ht [4]: 40.8% | Lym [4]: 70% | MCH [4]: 21.9 pg | MCHC [4]: 32.6% | Ret [4]: 8.2% | WBC [4]: 96.4 x10_2/uL | KIDNEY_L [3]: 0.9 g | KIDNEY_R [3]: 1 g | KIDNEY_TOTAL [3]: 1.9 g | LIVER [3]: 10 g | ALP [3]: 1142 IU/L | ALT [3]: 32.8 IU/L | BUN [3]: 10.8 mg/dL | CRE [3]: 0.4 mg/dL | DBIL [3]: 0.008 mg/dL | GLC [3]: 193.8 mg/dL | IP [3]: 9.7 mg/dL | K [3]: 4.9 meq/L | Na [3]: 137.4 meq/L | RALB [3]: 3.9 g/dL | TBIL [3]: 0.038 mg/dL | TG [3]: 85.8 mg/dL | TP [3]: 5.4 g/dL | gamma-GTP [3]: 1 IU/L | TERMINAL_BW [5]: 214.8 g | Bas [6]: 0% | Eos [6]: 1% | Ht [6]: 40.2% | Lym [6]: 75.6% | MCHC [6]: 32.5% | Ret [6]: 7.8% | WBC [6]: 95 x10_2/uL | KIDNEY_L [5]: 1 g | KIDNEY_R [5]: 1 g | KIDNEY_TOTAL [5]: 1.9 g | LIVER [5]: 9.2 g | ALP [5]: 1045.4 IU/L | ALT [5]: 28.8 IU/L | BUN [5]: 10.6 mg/dL | CRE [5]: 0.4 mg/dL | DBIL [5]: 0.006 mg/dL | GLC [5]: 191 mg/dL | IP [5]: 10.8 mg/dL | K [5]: 5 meq/L | Na [5]: 137.9 meq/L | PL [5]: 135 mg/dL | RALB [5]: 3.8 g/dL | TBIL [5]: 0.04 mg/dL | TG [5]: 41.4 mg/dL | TP [5]: 5.3 g/dL | gamma-GTP [5]: 0.6 IU/L | TERMINAL_BW [7]: 227.3 g | Bas [8]: 0% | Eos [8]: 1% | Ht [8]: 41.2% | Lym [8]: 76.2% | MCHC [8]: 32.6% | Ret [8]: 7.7% | WBC [8]: 100.4 x10_2/uL | KIDNEY_L [7]: 1 g | KIDNEY_R [7]: 1 g | KIDNEY_TOTAL [7]: 1.9 g | LIVER [7]: 11 g | ALP [7]: 1378 IU/L | ALT [7]: 34.6 IU/L | BUN [7]: 16.4 mg/dL | CRE [7]: 0.4 mg/dL | DBIL [7]: 0.01 mg/dL | GLC [7]: 192.6 mg/dL | IP [7]: 7.9 mg/dL | K [7]: 5.1 meq/L | Na [7]: 138.1 meq/L | RALB [7]: 3.9 g/dL | TBIL [7]: 0.034 mg/dL | TG [7]: 152.6 mg/dL | TP [7]: 5.5 g/dL | gamma-GTP [7]: 1 IU/L | TERMINAL_BW (30 mg/kg, 3 h, dose level High): 214.6 g | Bas [9]: 0% | Eos [9]: 1.2% | Ht [9]: 39.9% | Lym [9]: 67.4% | MCHC [9]: 32.6% | Ret [9]: 8.7% | WBC [9]: 79.4 x10_2/uL | KIDNEY_L (30 mg/kg, 3 h, dose level High): 0.9 g | KIDNEY_R (30 mg/kg, 3 h, dose level High): 1 g | KIDNEY_TOTAL (30 mg/kg, 3 h, dose level High): 1.9 g | LIVER (30 mg/kg, 3 h, dose level High): 9.8 g | ALP (30 mg/kg, 3 h, dose level High): 1364.6 IU/L | ALT (30 mg/kg, 3 h, dose level High): 36.4 IU/L | BUN (30 mg/kg, 3 h, dose level High): 10.6 mg/dL | CRE (30 mg/kg, 3 h, dose level High): 0.4 mg/dL | DBIL (30 mg/kg, 3 h, dose level High): 0.01 mg/dL | GLC (30 mg/kg, 3 h, dose level High): 201.4 mg/dL | IP (30 mg/kg, 3 h, dose level High): 10.1 mg/dL | K (30 mg/kg, 3 h, dose level High): 4.4 meq/L | Na (30 mg/kg, 3 h, dose level High): 138.6 meq/L | RALB (30 mg/kg, 3 h, dose level High): 4.1 g/dL | TBIL (30 mg/kg, 3 h, dose level High): 0.048 mg/dL | TG (30 mg/kg, 3 h, dose level High): 77.8 mg/dL | TP (30 mg/kg, 3 h, dose level High): 5.7 g/dL | gamma-GTP (30 mg/kg, 3 h, dose level High): 0.2 IU/L | TERMINAL_BW (30 mg/kg, 6 h, dose level High): 217.1 g | Bas [10]: 0% | Eos [10]: 1.2% | Ht [10]: 42% | Lym [10]: 73.2% | MCHC [10]: 32.3% | Ret [10]: 6.9% | WBC [10]: 82.6 x10_2/uL | KIDNEY_L (30 mg/kg, 6 h, dose level High): 0.9 g | KIDNEY_R (30 mg/kg, 6 h, dose level High): 1 g | KIDNEY_TOTAL (30 mg/kg, 6 h, dose level High): 1.9 g | LIVER (30 mg/kg, 6 h, dose level High): 9.3 g | ALP (30 mg/kg, 6 h, dose level High): 1193 IU/L | ALT (30 mg/kg, 6 h, dose level High): 31 IU/L | BUN (30 mg/kg, 6 h, dose level High): 9.2 mg/dL | CRE (30 mg/kg, 6 h, dose level High): 0.4 mg/dL | DBIL (30 mg/kg, 6 h, dose level High): 0.01 mg/dL | GLC (30 mg/kg, 6 h, dose level High): 198.8 mg/dL | IP (30 mg/kg, 6 h, dose level High): 9.9 mg/dL | K (30 mg/kg, 6 h, dose level High): 5.2 meq/L | Na (30 mg/kg, 6 h, dose level High): 137.7 meq/L | PL (30 mg/kg, 6 h, dose level High): 134.4 mg/dL | RALB (30 mg/kg, 6 h, dose level High): 3.8 g/dL | TBIL (30 mg/kg, 6 h, dose level High): 0.038 mg/dL | TG (30 mg/kg, 6 h, dose level High): 47.2 mg/dL | TP (30 mg/kg, 6 h, dose level High): 5.4 g/dL | gamma-GTP (30 mg/kg, 6 h, dose level High): 1 IU/L | TERMINAL_BW (30 mg/kg, 9 h, dose level High): 211.4 g | Bas [11]: 0% | Eos [11]: 0.8% | Ht [11]: 40.9% | Lym [11]: 77.8% | MCHC [11]: 32.4% | Ret [11]: 7.1% | WBC [11]: 90.6 x10_2/uL | KIDNEY_L (30 mg/kg, 9 h, dose level High): 0.9 g | KIDNEY_R (30 mg/kg, 9 h, dose level High): 1 g | KIDNEY_TOTAL (30 mg/kg, 9 h, dose level High): 1.9 g | LIVER (30 mg/kg, 9 h, dose level High): 9 g | ALP (30 mg/kg, 9 h, dose level High): 1165 IU/L | ALT (30 mg/kg, 9 h, dose level High): 28.8 IU/L | BUN (30 mg/kg, 9 h, dose level High): 8.4 mg/dL | CRE (30 mg/kg, 9 h, dose level High): 0.4 mg/dL | DBIL (30 mg/kg, 9 h, dose level High): 0.01 mg/dL | GLC (30 mg/kg, 9 h, dose level High): 202.8 mg/dL | IP (30 mg/kg, 9 h, dose level High): 11.1 mg/dL | K (30 mg/kg, 9 h, dose level High): 5.1 meq/L | Na (30 mg/kg, 9 h, dose level High): 138.2 meq/L | PL (30 mg/kg, 9 h, dose level High): 145.2 mg/dL | RALB (30 mg/kg, 9 h, dose level High): 3.9 g/dL | TBIL (30 mg/kg, 9 h, dose level High): 0.048 mg/dL | TG (30 mg/kg, 9 h, dose level High): 53 mg/dL | TP (30 mg/kg, 9 h, dose level High): 5.4 g/dL | gamma-GTP (30 mg/kg, 9 h, dose level High): 0.2 IU/L | TERMINAL_BW [12]: 222.3 g | Bas [13]: 0% | Eos [13]: 1% | Ht [13]: 40.1% | Lym [13]: 75.4% | MCHC [13]: 32.6% | Ret [13]: 7.8% | WBC [13]: 81 x10_2/uL | KIDNEY_L [12]: 1 g | KIDNEY_R [12]: 1 g | KIDNEY_TOTAL [12]: 2 g | LIVER [12]: 10.5 g | ALP [12]: 1406.6 IU/L | ALT [12]: 31 IU/L | CRE [12]: 0.4 mg/dL | DBIL [12]: 0.01 mg/dL | GLC [12]: 200 mg/dL | IP [12]: 8 mg/dL | K [12]: 5.2 meq/L | Na [12]: 138.1 meq/L | RALB [12]: 4 g/dL | TBIL [12]: 0.028 mg/dL | TG [12]: 100.4 mg/dL | TP [12]: 5.7 g/dL | gamma-GTP [12]: 1 IU/L
